The record followed here is patent US20220162191A1, “SMALL MOLECULE MODULATORS OF IL-17” (LEO PHARMA A/S, priority 2019, published 2022).

In general, EC50 refers to the midpoint of the concentration-response curve.

The target of this test is T1, human IL-17AA (Homo sapiens, UniProt Q16552).
T1 construct: host or cells: HEK (human embryonic kidney) cells
T1 sequence (Q16552 24-155) 1: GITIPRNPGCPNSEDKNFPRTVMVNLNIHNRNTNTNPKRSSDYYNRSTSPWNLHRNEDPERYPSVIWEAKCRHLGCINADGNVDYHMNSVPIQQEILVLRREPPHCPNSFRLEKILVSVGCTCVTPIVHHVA
T1 sequence (Q16552 24-155) 2: T1 sequence (Q16552 24-155) 1
Kind of test: IL-8 release assay in human epithelial keratinocytes adult (HEKa). Type of test: cell-based. The note with it: 3 ng/ml human IL-17AA + 10 ng/ml human TNFalpha, 68-72 h, IL-8 by HTRF, read-out: Rel EC50 L-8 release assay. The protocol:
Example: IL-8 release assay in human epithelial keratinocytes adult (HEKa) Keratinocytes were seeded at 3500 cells/well in 384-well ViewPlates (Perkin Elmer) in Epilife medium (Thermo Fisher) containing human keratinocyte growth supplement (HKGS) without hydrocortisone and incubated in a humid incubator at 37° C., 5% CO2, overnight. The following day growth medium was removed and 25 μl fresh Epilife 10 medium added. 75 nl test compound in 100% DMSO was added into each well reserved
for test compounds, by the use of acoustic pipetting. The remaining wells received an equal volume of DMSO only, as vehicle control, or terfenadine in DMSO, as a positive control for any cytotoxic compounds. Subsequently, another 25 μl Epilife medium was added to each well. Finally, wells containing test compounds and wells prepared to yield 15 maximum stimulation received 25 μl of 9 ng/ml recombinant, human embryonic kidney cell (HEK)-derived human IL-17AA+30 ng/ml human TNF-alpha, in Epilife medium. Wells prepared to define 100% inhibition of IL-17 effects received 25 μl of 30 ng/ml human TNF-alpha alone, in Epilife medium. Final concentrations were 3 ng/ml HEKhuman IL-17AA+10 ng/ml human TNFalpha (maximum stimulation) and 10 ng/ml 20 human TNFalpha alone (100% inhibition, Emax), respectively. Cells were incubated for 68-72 h in the incubator. IL-8 released from the cells was measured by the use of a commercial homogenous time-resolved fluorescence (HTRF) assay (CisBio). 2 μl cell culture supernatant was transferred to a 384-well Proxiplate. 5 μl HTRF reagent was added and the plates incubated sealed in the dark for 3-22 h at room temperature. Time resolved fluorescence was read at 665 vs 620 nm, with excitation at 320 nm, and IL-8 levels calculated as percent of controls. Reduction of the amount of secreted IL-8 indicates decreased IL-17 signaling. Concentration response curves were fitted by the use of a four-parameter logistic equation. Relative IC50 and Emax were reported from 5 curves showing acceptable fit (r2>0.9). Cytotoxicity was measured in the cell-containing
Compounds of the present invention were tested in the IL-8 release assay in human epithelial keratinocytes.

SMILES strings stand for the structures.

Take `Cc1cc(-c2ccc3c(c2)[C@H]([C@H](NC(=O)c2ccnn2C)C(=O)Nc2ccc(-c4c(C)n[nH]c4C)cc2)CC3)ccc1CN1CCOCC1` [Example 18, N-[(1S)-2-[4-(3,5-dimethyl-1H-pyrazol-4-yl)anilino]-1-[(1R)-6-[3-methyl-4-(morpholinomethyl)phenyl]indan-1-yl]-2-oxo-ethyl]-2-methyl-pyrazole-3-carboxamide]: the EC50 was less than 100 nM.

Take `Cc1nccn1-c1ccc(NC(=O)[C@H](Cc2cc(-c3ccc(=O)n(C(C)C)c3)ccc2Cl)NC(=O)C2(F)CC2)cc1` [Example 114, N-[(1S)-1-[[2-chloro-5-(1-isopropyl-6-oxo-3-pyridyl)phenyl]methyl]-2-[4-(2-methylimidazol-1-yl)anilino]-2-oxo-ethyl]-1-fluoro-cyclopropanecarboxamide]: the concentration giving a half-maximal response (EC50) fell in the range of 100 to 1000 nM.

`Cn1cnnc1-c1ccc(NC(=O)C(Cc2cc(-c3cccc(CC4CC4)c3)ccc2Cl)NC(=O)c2ccnn2C)cc1` (stereo not shown) [Example 169, N-[1-[[2-chloro-5-[3-(cyclopropylmethyl)phenyl]phenyl]methyl]-2-[4-(4-methyl-1,2,4-triazol-3-yl)anilino]-2-oxo-ethyl]-2-methyl-pyrazole-3-carboxamide]: the EC50 lay within 100 to 1000 nM.

Consider `CC(c1cc(-c2ccc(=O)n(C(C)C)c2)ccc1Cl)[C@H](NC(=O)OC1CC1)C(=O)Nc1ccc(-c2cncn2C)cc1` (stereo partly drawn) [Example 53, cyclopropyl N-[(1S)-2-[2-chloro-5-(1-isopropyl-6-oxo-3-pyridyl)phenyl]-1-[[4-(3-methylimidazol-4-yl)phenyl]carbamoyl]propyl] carbamate], for which the EC50 is 100 to 1000 nM.

In the case of `Cc1cc(-c2ccc3c(c2)[C@H]([C@H](NC(=O)C2(F)CC2)C(=O)Nc2ccc(-c4c(C)n[nH]c4C)cc2)CC3)nc(N2C[C@@H]3C[C@H]2CO3)n1` [Example 370, N-[(1S)-2-[4-(3,5-dimethyl-1H-pyrazol-4-yl)anilino]-1-[(1R)-6-[6-methyl-2-[(1S,4S)-2-oxa-5-azabicyclo[2.2.1]heptan-5-yl]pyrimidin-4-yl]indan-1-yl]-2-oxo-ethyl]-1-fluoro-cyclopropanecarboxamide], the EC50 was less than 100 nM.

As to `Cc1n[nH]c(C)c1-c1ccc(NC(=O)[C@@H](NC(=O)C2(F)CC2)[C@@H]2CCc3ccc(-c4cc(C)c(=O)n(C(C)C)c4)cc32)cc1` [Example 357, N-[(1S)-2-[4-(3,5-dimethyl-1H-pyrazol-4-yl)anilino]-1-[(1R)-6-(1-isopropyl-5-methyl-6-oxo-3-pyridyl)indan-1-yl]-2-oxo-ethyl]-1-fluoro-cyclopropanecarboxamide], the 50% effective concentration (EC50) was less than 100 nM.

`Cc1n[nH]c(C)c1-c1ccc(NC(=O)[C@@H](NC(=O)C2(F)CC2)[C@@H]2CCc3ccc(-c4cc(N5CC(F)(F)C5)ncn4)cc32)cc1` [Example 375, N-[(1S)-1-[(1R)-6-[6-(3,3-difluoroazetidin-1-yl)pyrimidin-4-yl]indan-1-yl]-2-[4-(3,5-dimethyl-1H-pyrazol-4-yl)anilino]-2-oxo-ethyl]-1-fluoro-cyclopropanecarboxamide]: the concentration for a half-maximal effect (EC50) was 100 to 1000 nM.

Consider `Cc1cnn(C)c1-c1ccc(NC(=O)[C@@H](NC(=O)C2(F)CC2)[C@@H]2CCc3ccc(-c4ccnc(N5C[C@@H]6C[C@H]5CO6)c4)cc32)cc1O` [Example 369, N-[(1S)-2-[4-(2,4-dimethylpyrazol-3-yl)-3-hydroxy-anilino]-1-[(1R)-6-[2-[(1S,4S)-2-oxa-5-azabicyclo[2.2.1]heptan-5-yl]-4-pyridyl]indan-1-yl]-2-oxo-ethyl]-1-fluoro-cyclopropanecarboxamide], for which the EC50 is less than 100 nM.

In the case of `Cc1cnn(C)c1-c1ccc(NC(=O)[C@H](Cc2cc(-c3ccc(=O)n(C(C)C)c3)ccc2Cl)NC(=O)C2(C)CC2)cc1` [Example 334, N-[(1S)-1-[[2-chloro-5-(1-isopropyl-6-oxo-3-pyridyl)phenyl]methyl]-2-[4-(2,4-dimethylpyrazol-3-yl)anilino]-2-oxo-ethyl]-1-methyl-cyclopropanecarboxamide], the EC50 is 100 to 1000 nM.

On to `Cc1n[nH]c(C)c1-c1ccc(NC(=O)[C@@H](NC(=O)c2ccnn2C)[C@@H]2CCCc3ccc(-c4cnn(C5CC5)c4)cc32)cc1` [Example 26, N-[(1S)-1-[(1R)-7-(1-cyclopropylpyrazol-4-yl)tetralin-1-yl]-2-[4-(3,5-dimethyl-1H-pyrazol-4-yl)anilino]-2-oxo-ethyl]-2-methyl-pyrazole-3-carboxamide], for which the EC50 is less than 100 nM.

Take `Cc1n[nH]c(C)c1-c1ccc(NC(=O)[C@@H](NC(=O)C2(F)CC2)[C@@H]2CCCc3ccc(-c4cnn(C(F)F)c4)cc32)cc1` [Example 393, N-[(1S)-1-[(1R)-7-[1-(difluoromethyl)pyrazol-4-yl]tetralin-1-yl]-2-[4-(3,5-dimethyl-1H-pyrazol-4-yl)anilino]-2-oxo-ethyl]-1-fluoro-cyclopropanecarboxamide]: the EC50 is 100 to 1000 nM.

In the case of `Cn1cncc1-c1ccc(NC(=O)C(Cc2cc(-c3ccnc(OC(F)F)c3)ccc2Cl)NC(=O)c2ccnn2C)cc1` (stereo not shown) [Example 161, N-[1-[[2-chloro-5-[2-(difluoromethoxy)-4-pyridyl]phenyl]methyl]-2-[4-(3-methylimidazol-4-yl)anilino]-2-oxo-ethyl]-2-methyl-pyrazole-3-carboxamide], the EC50 is 100 to 1000 nM.

Regarding `CC(C)n1cc(-c2ccc(Cl)c(C[C@H](NC(=O)C3(F)CCC3)C(=O)Nc3ccc(-c4cncn4C)cc3)c2)ccc1=O` [Example 147, N-[(1S)-1-[[2-chloro-5-(1-isopropyl-6-oxo-3-pyridyl)phenyl]methyl]-2-[4-(3-methylimidazol-4-yl)anilino]-2-oxo-ethyl]-1-fluoro-cyclobutanecarboxamide], the EC50 is 100 to 1000 nM.

With `Cc1n[nH]c(C)c1-c1ccc(NC(=O)[C@@H](NC(=O)C2(F)CC2)[C@@H]2CCCc3ccc(-c4cnn(C5CCOCC5)c4)cc32)cc1` [Example 396, N-[(1S)-2-[4-(3,5-dimethyl-1H-pyrazol-4-yl)anilino]-2-oxo-1-[(1R)-7-(1-tetrahydropyran-4-ylpyrazol-4-yl)tetralin-1-yl]ethyl]-1-fluoro-cyclopropanecarboxamide], the EC50 was less than 100 nM.

For `Cn1cnnc1-c1ccc(NC(=O)[C@@H](NC(=O)C2(F)CC2)[C@@H]2CCCc3ccc(-c4ccnc(N5C[C@H]6C[C@@H]5CO6)c4)cc32)cc1` [Example 405, 1-fluoro-N-[(1S)-2-[4-(4-methyl-1,2,4-triazol-3-yl)anilino]-1-[(1R)-7-[2-[(1R,4R)-2-oxa-5-azabicyclo[2.2.1]heptan-5-yl]-4-pyridyl]tetralin-1-yl]-2-oxo-ethyl]cyclopropanecarboxamide], the EC50 is greater than 1000 nM.

As for `Cc1n[nH]c(C)c1-c1ccc(NC(=O)[C@H](Cc2cc(-c3cccc(CN4C[C@H]5C[C@@H]4CN5)c3)ccc2Cl)NC(=O)C2(F)CC2)cc1` [Example 310, N-[(1S)-1-[[2-chloro-5-[3-[[(1R,4R)-2,5-diazabicyclo[2.2.1]heptan-2-yl]methyl]phenyl]phenyl]methyl]-2-[4-(3,5-dimethyl-1H-pyrazol-4-yl)anilino]-2-oxo-ethyl]-1-fluoro-cyclopropanecarboxamide], the EC50 fell in the range of 100 to 1000 nM.

Take `Cn1cncc1-c1ccc(NC(=O)C(Cc2cc(-c3ccnc(N4CC[C@H](CO)C4)c3)ccc2Cl)NC(=O)c2ccnn2C)cc1` (stereo partly drawn) [Example 185, N-[1-[[2-chloro-5-[2-[(3S)-3-(hydroxymethyl)pyrrolidin-1-yl]-4-pyridyl]phenyl]methyl]-2-[4-(3-methylimidazol-4-yl)anilino]-2-oxo-ethyl]-2-methyl-pyrazole-3-carboxamide]: the EC50 is 100 to 1000 nM.

As to `Cc1cnn(C)c1-c1ccc(NC(=O)[C@H](Cc2cc(-c3ccc(=O)n(C(C)C)c3)ccc2Cl)NC(=O)c2cnco2)cc1` [Example 321, N-[(1S)-1-[[2-chloro-5-(1-isopropyl-6-oxo-3-pyridyl)phenyl]methyl]-2-[4-(2,4-dimethylpyrazol-3-yl)anilino]-2-oxo-ethyl]oxazole-5-carboxamide], the EC50 is greater than 1000 nM.

With `CC(C)n1cc(-c2ccc(Cl)c(C[C@H](NC(=O)C3(F)CCC3)C(=O)Nc3ccc(-c4nncn4C)cc3)c2)ccc1=O` [Example 148, N-[(1S)-1-[[2-chloro-5-(1-isopropyl-6-oxo-3-pyridyl)phenyl]methyl]-2-[4-(4-methyl-1,2,4-triazol-3-yl)anilino]-2-oxo-ethyl]-1-fluoro-cyclobutanecarboxamide], the EC50 was greater than 1000 nM.
